Results published in publication PMC10301001, “Radiochemical and Biological Evaluation of 3p-C-NETA-ePSMA-16, a Promising PSMA-Targeting Agent for Radiotheranostics” (Pharmaceuticals, 2023).
“And” between values parts separate entries of the source, which are not always exact repeats. Equal entries are not always repeated.

Experiments:
recombinant human PSMA = biological target: T1, recombinant human PSMA (Homo sapiens, UniProt Q04609); assay: fluorescence-based NAALADase enzymatic assay; format: biochemical; settings: for IC50: rhPSMA, NAAG substrate, three assays in triplicate, read-out: IC50 (affinity to PSMA)
T1 construct: purchased R&D systems, Abingdon, UK
T1 sequence (Q04609 whole entry): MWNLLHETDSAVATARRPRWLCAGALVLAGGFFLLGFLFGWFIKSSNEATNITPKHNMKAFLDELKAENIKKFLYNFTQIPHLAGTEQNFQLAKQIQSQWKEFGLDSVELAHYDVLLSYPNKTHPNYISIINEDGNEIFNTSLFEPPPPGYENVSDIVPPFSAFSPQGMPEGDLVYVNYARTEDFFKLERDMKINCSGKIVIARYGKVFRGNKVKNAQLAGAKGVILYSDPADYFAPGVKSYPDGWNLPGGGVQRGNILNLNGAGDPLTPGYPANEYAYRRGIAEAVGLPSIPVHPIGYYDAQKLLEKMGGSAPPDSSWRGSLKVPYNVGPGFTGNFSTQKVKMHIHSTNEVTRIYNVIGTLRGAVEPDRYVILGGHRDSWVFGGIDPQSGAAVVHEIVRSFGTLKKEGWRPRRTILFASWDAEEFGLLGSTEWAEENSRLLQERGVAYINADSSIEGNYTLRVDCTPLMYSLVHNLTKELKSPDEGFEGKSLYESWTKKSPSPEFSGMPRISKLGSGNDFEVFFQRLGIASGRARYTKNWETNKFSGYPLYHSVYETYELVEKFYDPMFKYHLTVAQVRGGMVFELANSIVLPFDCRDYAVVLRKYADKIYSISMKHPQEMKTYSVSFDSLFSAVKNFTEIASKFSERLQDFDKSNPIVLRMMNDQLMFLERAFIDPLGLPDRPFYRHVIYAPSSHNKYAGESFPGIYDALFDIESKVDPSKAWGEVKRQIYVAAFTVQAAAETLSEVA
Protocol: The assay buffer (50 mM HEPES, 0.1 M NaCl, pH 7.5) was used to dilute the recombinant human PSMA (rhPSMA, R&D systems, Abingdon, UK) to 0.4 µg/mL, as well as the enzymatic substrate Ac-Asp-Glu (NAAG) (40 μM in assay buffer). 3p-C-NETA-ePSMA-16 and an internal reference, PSMA-617, were dissolved in assay buffer at concentrations ranging from 10^−5 to 10^−12 M. 6.25 µL of the compound were incubated with 6.25 µL of the substrate to which 12.5 µL of rhPSMA solution was added, and incubated for 1 h at 37 °C in 384-well black polystyrene microplates. Next, 25 µL of a working solution of the Amplex Red glutamic acid kit (ThermoFisher, Bleiswijk, The Netherlands) was added and incubated at 37 °C for 30 min to measure glutamate released. A HIDEX Sense Optical System (HIDEX, Goedereede, The Netherlands) was used to measure the fluorescence, with excitation set at 535 nm and emission at 590 nm. Assays were performed in triplicate and as three separate replicates. Data were normalized and analyzed using a one-site total binding regression algorithm from GraphPad Prism 9 (GraphPad Software, Boston, MA, USA).

[1] = radiolabeled with 88Y, 177Lu and 205/206Bi; cited from earlier work
[2] = Storage stability of the unlabeled compound; format: physicochemical
[3] = test system: PSMA+ LS174T tumor xenografts; assay: Ex vivo biodistribution in LS174T tumor-bearing BALB/c nude mice; set-up: species or system mouse
Protocol: (§1) We housed 8–10 weeks old male BALB/c nude mice (BALB/cAnN Rj-Nude; Janvier Labs, Le Genest-Saint-Isle, France) in individually ventilated cages (Blue line IVC, 2 mice per cage). Sterile standard conditions were employed with the presence of cage enrichment and unlimited access to water and animal chow (Sniff GmbH). Acclimatization was realized 1 week before the beginning of the experiments. Mice were subcutaneously inoculated in their right flank with LS174T cells (4.0 × 10^6) diluted in 100 µL of cell suspension. Tumors grew to an average volume of 217.8 ± 9.4 mm^3 in 7 days (average weight of 217 ± 14.4 mg), and mice were grouped non-blinded to afford homogenous tumor size distribution intra-groups. […] All experiments were in accordance with the guidelines of the Revised Dutch Act on Animal Experimentation (WOD).
Mice (n = 4/group) were euthanized via cervical dislocation at 1, 4, and 24 h post-injection (p.i.). A block group (n = 4) containing a 50-fold excess of 3p-C-NETA-ePSMA-16 was also included in the study (euthanized at 4 h p.i.). Tissues were collected in tubes, weighted, and counted in the gamma counter.

[4] = test system: PSMA+ LS174T tumor xenografts; assay: SPECT/CT imaging in LS174T tumor-bearing mice; format: in vivo, mouse; settings: 1 h p.i.
Protocol: as §1
At 1 and 24 h p.i., mice were placed under 2% isoflurane/O2 anesthesia on a heated bed and imaged in a dedicated small-animal PET/SPECT/CT scanner (VECTor5CT scanner, MILabs B.V., Utrecht, The Netherlands) equipped with a high sensitivity pinhole collimator (XXUHS-M, 3.00 mm pinhole diameter). […] The CT and registered attenuation-corrected SPECT images were analyzed using IMALYTICS Preclinical 3.0 (Gremse-IT GmbH, Aachen, Germany).

[5] = LogD7.4 shake-flask method; format: physicochemical; settings: n-octanol/PBS pH 7.4, n = 3
Protocol: The distribution coefficient (LogD7.4) was determined by a shake-flask method in triplicate. […] The mixture was vortexed vigorously and then centrifuged at 5000× g for 15 min for phase separation. Samples of the two phases (3 × 10 μL) were taken out and measured using a PerkinElmer Wizard 2 γ-counter. LogD7.4 values were calculated using the following equation: LogD7.4 = log [(counts in octanol phase)/(counts in aqueous phase)] [34].

[6] = Transchelation/challenge study with excess EDTA; format: physicochemical; settings: 37 °C, 24 h
Protocol: Samples were analyzed by iTLC at 1, 4, and 24 h after incubation to determine the percentage (%) of intact radioligand [16].

LS174T PSMA+ cells = assay: Cell uptake and internalization assay; format: cell-based, human
Protocol: LS174T human colon carcinoma cells transfected with human PSMA were provided by Dr. Sandra Heskamp (Radboudumc, Nijmegen, The Netherlands). RPMI-1640 media supplemented with 2 mM glutamine, 10% fetal bovine serum (FBS), and 0.3 mg/mL G418 (Geneticin, Sigma Aldrich, Burlington, MA, USA) was used to culture the cells. PC-3-Pip and PC-3-Flu cells were received from Prof. Martin G. Pomper (John Hopkins University, Baltimore, MD, USA).
LS174T cells were seeded (1.2 × 10^6 cells/well) and cultured to confluency 24 h prior to the experiments. […] Blocking experiments were also performed using a 50-fold excess of either PSMA-617 or 3p-C-NETA-ePSMA-16. The media was removed, and wells were then rinsed twice with PBS at rt. To each well, we added 2 mL of the radioactive compound, which was incubated at 37 °C for 2 h. Internalization assay: the media containing the radioactive compound was removed from each well, followed by two washes with 1 mL cold PBS. Glycine buffer (1 mL, 50 mM glycine, 100 mM NaCl, pH 2.8) was immediately added to the wells prior to incubation at rt for 10 min. The glycine wash and an additional wash were collected into counting tubes (membrane-bound fraction). NaOH (1 mL, 1 M) was added to each well for 15 min at rt. The internalized fraction (lysate) and an additional NaOH wash were collected in the same tubes. Data were normalized to the added dose per 1,000,000 cells (AD/10^6 cells) and represented as counts per minute (CPM).

[7] = 4 h p.i., block (50-fold excess unlabeled)

## O=C(O)CC[C@H](NC(=O)N[C@@H](CCCCNC(=O)[C@H](Cc1ccc2ccccc2c1)NC(=O)[C@H]1CC[C@H](CNC(=O)CN2CCN(CC(=O)O)CCN(CC(=O)O)CCN(CC(=O)O)CC2)CC1)C(=O)O)C(=O)O [PSMA-617, reference compound]
Recombinant human PSMA
  IC50: 0.78 ± 0.3 nM

## O=C(O)CN1CCN(CC(=O)O)CCN(CC(CCCc2ccc([N+](=O)[O-])cc2)N(CC(=O)O)CC(=O)O)CC1 (centres unmarked) [3p-C-NETA]
[1]
  stability in serum in vitro: highly stable in serum in vitro for up to 11 days

## CC(C)CC(NC(=O)C(Cc1ccccc1)NC(=O)C(CC(=O)O)NC(=O)CCC(=O)Nc1ccc(CCCC(CN2CCN(CC(=O)O)CCN(CC(=O)O)CC2)N(CC(=O)O)CC(=O)O)cc1)C(O)CC(=O)NCCCCCC(=O)NCCCCC(NC(=O)NC(CCC(=O)O)C(=O)O)C(=O)O (stereo not drawn) [3p-C-NETA-ePSMA-16, EuK(Ahx-Sta-Phe-Asp-3p-C-NETA)]
[2]; stored as a lyophilized powder
  storage stability: > 1 year
[2]; stored as an aqueous solution
  storage stability: > 6 months
Recombinant human PSMA
  IC50: 4.61 ± 1.33 nM
Recombinant human PSMA; vs PSMA-617
  IC50 relative to reference PSMA-617 (fold higher IC50 / lower affinity): 5 fold

## CC(C)C[C@H](NC(=O)[C@H](Cc1ccccc1)NC(=O)[C@H](CC(=O)O)NC(=O)CCC(=O)Nc1ccc(CCCC(CN2CCN(CC(=O)[O-])CCN(CC(=O)[O-])CC2)N(CC(=O)[O-])CC(=O)O)cc1)[C@@H](O)CC(=O)NCCCCCC(=O)NCCCC[C@H](NC(=O)N[C@@H](CCC(=O)O)C(=O)O)C(=O)O.[111In+3] (some centres unmarked) [[^111In]In-3p-C-NETA-ePSMA-16]
[3]; 1 h p.i.
  Blood uptake: 0.26 ± 0.19 % ID/g
  Bone uptake: 0.20 ± 0.05 % ID/g
  Heart uptake: 0.15 ± 0.05 % ID/g
  Intestines uptake: 0.59 ± 0.13 % ID/g
  Kidney uptake: 26.70 ± 2.12 % ID/g
  Liver uptake: 0.20 ± 0.03 % ID/g
  Lung uptake: 0.45 ± 0.10 % ID/g
  Muscle uptake: 0.13 ± 0.09 % ID/g
  Pancreas uptake: 0.23 ± 0.05 % ID/g
  Prostate uptake: 1.08 ± 0.41 % ID/g
  Skin uptake: 0.46 ± 0.15 % ID/g
  Spleen uptake: 1.28 ± 0.49 % ID/g
  Stomach uptake: 0.31 ± 0.21 % ID/g
  Tumor uptake: 1.62 ± 0.55 % ID/g
[3]; 4 h p.i.
  Blood uptake: 0.01 ± 0.01 % ID/g
  Bone uptake: 0.03 ± 0.00 % ID/g
  Heart uptake: 0.02 ± 0.00 % ID/g
  Intestines uptake: 0.60 ± 0.28 % ID/g
  Kidney uptake: 11.62 ± 0.62 % ID/g
  Liver uptake: 0.07 ± 0.01 % ID/g
  Lung uptake: 0.06 ± 0.01 % ID/g
  Muscle uptake: 0.04 ± 0.00 % ID/g
  Pancreas uptake: 0.03 ± 0.00 % ID/g
  Prostate uptake: 0.12 ± 0.07 % ID/g
  Skin uptake: 0.24 ± 0.15 % ID/g
  Spleen uptake: 0.12 ± 0.01 % ID/g
  Stomach uptake: 0.05 ± 0.02 % ID/g
  Tumor uptake: 0.89 ± 0.58 % ID/g
[3]; [7]
  Blood uptake: 0.01 ± 0.00 % ID/g
  Bone uptake: 0.03 ± 0.01 % ID/g
  Heart uptake: 0.02 ± 0.00 % ID/g
  Intestines uptake: 0.68 ± 0.02 % ID/g
  Kidney uptake: 9.53 ± 1.66 % ID/g
  Liver uptake: 0.07 ± 0.01 % ID/g
  Lung uptake: 0.05 ± 0.01 % ID/g
  Muscle uptake: 0.02 ± 0.01 % ID/g
  Pancreas uptake: 0.02 ± 0.01 % ID/g
  Prostate uptake: 0.07 ± 0.02 % ID/g
  Skin uptake: 0.13 ± 0.02 % ID/g
  Spleen uptake: 0.05 ± 0.01 % ID/g
  Stomach uptake: 0.15 ± 0.10 % ID/g
  Tumor uptake: 0.12 ± 0.04 % ID/g
[3]; 24 h p.i.
  Bone uptake: 0.02 ± 0.00 % ID/g
  Heart uptake: 0.01 ± 0.00 % ID/g
  Intestines uptake: 0.04 ± 0.02 % ID/g
  Kidney uptake: 4.27 ± 0.87 % ID/g
  Liver uptake: 0.03 ± 0.00 % ID/g
  Lung uptake: 0.02 ± 0.00 % ID/g
  Muscle uptake: 0.01 ± 0.00 % ID/g
  Pancreas uptake: 0.01 ± 0.00 % ID/g
  Prostate uptake: 0.04 ± 0.01 % ID/g
  Skin uptake: 0.10 ± 0.06 % ID/g
  Spleen uptake: 0.03 ± 0.00 % ID/g
  Stomach uptake: 0.01 ± 0.00 % ID/g
  Tumor uptake: 0.12 ± 0.02 % ID/g
[4]
  tumor signal in SPECT/CT: faint signal
[5]
  logD: −2.95 ± 0.19
[6]
  intact radioligand in transchelation challenge: 93.2 ± 0.7% and > 90%
LS174T PSMA+ cells
  total cell uptake: 1.41 ± 0.20 % ID/10^6 cells
LS174T PSMA+ cells; 10^−9 M, 2 h, 37 °C
  internalized fraction: 0.50 ± 0.16 % AD/10^6 cells
  membrane-bound fraction: 0.90 ± 0.05 % AD/10^6 cells
LS174T PSMA+ cells; 50-fold excess of unlabeled compound
  cell uptake in the blocked group: no uptake
